# Laboratory results published in patent US20160272617A1, “SUBSTITUTED PHENYLALANINE DERIVATIVES” (BAYER PHARMA AKTIENGESELLSCHAFT, priority 2013, published 2016).
# Where a name gives a salt, the structure may show the parent alone.
# Biological target: T1, human factor XIa (Homo sapiens, UniProt P03951)
# T1 construct: purchased Kordia
# Test: Measurement of FXIa inhibition (fluorogenic peptide substrate Boc-Glu(OBzl)-Ala-Arg-AMC)
# Type: biochemical
# Conditions: factor XIa from Kordia, 15 min preincubation, 30 min at 22° C., fluorescence
# Procedure: The factor XIa inhibition of the inventive substances is determined using a biochemical test system which utilizes the reaction of a peptidic factor XIa substrate to determine the enzymatic activity of human factor XIa. Here, factor XIa cleaves from the peptic factor XIa substrate the C-terminal aminomethylcoumarin (AMC), the fluorescence of which is measured. The determinations are carried out in microtitre plates.
# Test substances are dissolved in dimethyl sulphoxide and serially diluted in dimethyl sulphoxide (3000 μM to 0.0078 μM; resulting final concentrations in the test: 50 μM to 0.00013 μM). In each case 1 μl of the diluted substance solutions is placed into the wells of white microtitre plates from Greiner (384 wells). Subsequently, the following are added successively: 20 μl of assay buffer (50 mmol/l Tris buffer pH 7.4; 100 mmol/l sodium chloride; 5 mmol/l calcium chloride; 0.1% bovine serum albumin) and 20 μl of factor XIa from Kordia (0.45 nM in assay buffer). After 15 min of incubation, the enzyme reaction is started by addition of 20 μl of the factor XIa substrate Boc-Glu(OBzl)-Ala-Arg-AMC dissolved in assay buffer (10 μM in assay buffer) from Bachem, the mixture is incubated at room temperature (22° C.) for 30 min and fluorescence is then measured (excitation: 360 nm, emission: 460 nm). The measured emissions of the test mixtures with test substance are compared to those of control mixtures without test substance (only dimethyl sulphoxide instead of test substance in dimethyl sulphoxide), and the IC50 values are calculated from the concentration/activity relationships.
# T1 sequence (P03951 388-625 limits assumed): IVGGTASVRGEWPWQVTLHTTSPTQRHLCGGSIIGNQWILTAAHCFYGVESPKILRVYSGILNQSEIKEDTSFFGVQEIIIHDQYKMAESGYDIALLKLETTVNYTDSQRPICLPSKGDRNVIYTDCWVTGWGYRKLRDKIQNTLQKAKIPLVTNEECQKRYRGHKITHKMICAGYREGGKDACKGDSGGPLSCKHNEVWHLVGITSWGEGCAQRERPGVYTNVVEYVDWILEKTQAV
# T1 sequence (P03951 19-387 partner limits assumed): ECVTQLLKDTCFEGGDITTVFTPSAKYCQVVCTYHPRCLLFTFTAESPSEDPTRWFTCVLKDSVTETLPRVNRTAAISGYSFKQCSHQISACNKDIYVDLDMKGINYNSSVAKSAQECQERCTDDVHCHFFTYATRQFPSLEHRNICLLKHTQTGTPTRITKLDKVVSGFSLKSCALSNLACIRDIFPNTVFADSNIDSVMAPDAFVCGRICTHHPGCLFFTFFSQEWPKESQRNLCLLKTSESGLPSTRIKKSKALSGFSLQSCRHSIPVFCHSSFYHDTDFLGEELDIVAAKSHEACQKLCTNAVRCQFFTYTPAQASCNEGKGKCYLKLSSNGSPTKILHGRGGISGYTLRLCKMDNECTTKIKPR
row,SMILES,IC50 [nM]
1,"COc1cc(C(=O)NC2CCC(N(C)C)CC2)ccc1-c1ccc(C[C@H](NC(=O)[C@H]2CC[C@H](CN)CC2)C(=O)Nc2ccc(-c3nn[nH]n3)cc2)cc1 (stereo partly drawn) [Example 67, 4′-[(2S)-2-({[trans-4-(Aminomethyl)cyclohexyl]carbonyl}amino)-3-oxo-3-{[4-(2H-tetrazol-5-yl)phenyl]amino}propyl]-N-[4-(dimethylamino)cyclohexyl]-2-methoxybiphenyl-4-carboxamide hydrochloride]",4.6
2,"Cc1cc(C(=O)NC2CCC(N(C)C)CC2)ccc1-c1ccc(C[C@H](NC(=O)[C@H]2CC[C@H](CN)CC2)C(=O)Nc2ccc(-c3nn[nH]n3)cc2)cc1 (stereo partly drawn) [Example 70, 4′-[(2S)-2-({[trans-4-(Aminomethyl)cyclohexyl]carbonyl}amino)-3-oxo-3-{[4-(2H-tetrazol-5-yl)phenyl]amino}propyl]-N-[4-(dimethylamino)cyclohexyl]-2-methylbiphenyl-4-carboxamide hydrochloride]",1.6
3,"Cc1cc(C(=O)N[C@H]2CC[C@H](O)CC2)ccc1-c1ccc(C[C@H](NC(=O)[C@H]2CC[C@H](CN)CC2)C(=O)Nc2ccc(-c3nnc(C(F)(F)C(F)(F)C(=O)O)[nH]3)cc2)cc1 (single isomer, unassigned; enantiomer 1) [Example 168]",0.5
4,"CNC(=O)c1ccc(-c2ccc(C[C@H](NC(=O)[C@H]3CC[C@H](CN)CC3)C(=O)Nc3ccc(-c4nn[nH]n4)cc3)cc2)c(C)c1 [Example 19, 4′-[(2S)-2-({[trans-4-(Aminomethyl)cyclohexyl]carbonyl}amino)-3-oxo-3-{[4-(2H-tetrazol-5-yl)phenyl]amino}propyl]-N,2-dimethylbiphenyl-4-carboxamide]",2.9
5,"Cc1cc(C(=O)NC2CCC(O)C2)ccc1-c1ccc(CC(NC(=O)C2CCC(CN)CC2)C(=O)Nc2ccc(-c3nnn[nH]3)c(F)c2)cc1 [Example 92, 4′-[(2S)-2-({[trans-4-(Aminomethyl)cyclohexyl]carbonyl}amino)-3-{[3-fluoro-4-(2H-tetrazol-5-yl)phenyl]amino}-3-oxopropyl]-N-(3-hydroxycyclopentyl)-2-methylbiphenyl-4-carboxamide hydrochloride]",1.8
6,"Cc1cc(C(=O)N[C@@H]2CCCCNC2=O)ccc1-c1ccc(C[C@H](NC(=O)[C@H]2CC[C@H](CN)CC2)C(=O)Nc2ccc(-c3nn[nH]n3)cc2)cc1 [Example 64, 4′-[(2S)-2-({[trans-4-(Aminomethyl)cyclohexyl]carbonyl}amino)-3-oxo-3-{[4-(2H-tetrazol-5-yl)phenyl]amino}propyl]-2-methyl-N-[(3R)-2-oxoazepan-3-yl]biphenyl-4-carboxamide hydrochloride]",1.6
7,"Cc1cc(C(=O)N[C@@H]2CCNC2)ccc1-c1ccc(C[C@H](NC(=O)[C@H]2CC[C@H](CN)CC2)C(=O)Nc2ccc(-c3nc(C(F)(F)C(F)(F)F)n[nH]3)cc2)cc1 [Example 75, 4′-[(2S)-2-({[trans-4-(Aminomethyl)cyclohexyl]carbonyl}amino)-3-oxo-3-({4-[3-(pentafluoroethyl)-1H-1,2,4-triazol-5-yl]phenyl}amino)propyl]-2-methyl-N-[(3R)-pyrrolidin-3-yl]biphenyl-4-carboxamide hydrochloride]",2.5
8,"Cc1cc(C(=O)N[C@H]2CCCN(C)C2)ccc1-c1ccc(C[C@H](NC(=O)[C@H]2CC[C@H](CN)CC2)C(=O)Nc2ccc(-c3nn[nH]n3)cc2)cc1 [Example 73, 4′-[(2S)-2-({[trans-4-(Aminomethyl)cyclohexyl]carbonyl}amino)-3-oxo-3-{[4-(2H-tetrazol-5-yl)phenyl]amino}propyl]-2-methyl-N-[(3S)-1-methylpiperidin-3-yl]biphenyl-4-carboxamide hydrochloride]",3.4
9,"Cc1cc(C(=O)N2CCS(=O)(=O)CC2)ccc1-c1ccc(C[C@H](NC(=O)[C@H]2CC[C@H](CN)CC2)C(=O)Nc2ccc(-c3nn[nH]n3)cc2)cc1 [Example 69, trans-4-(Aminomethyl)-N-[(2S)-3-{4′-[(1,1-dioxidothiomorpholin-4-yl)carbonyl]-2′-methyl-biphenyl-4-yl}-1-oxo-1-{[4-(2H-tetrazol-5-yl)phenyl]amino}propan-2-yl]cyclohexanecarboxamide hydrochloride]",2.4
10,"Cc1cc(C(=O)NC2CCNCC2)ccc1-c1ccc(C[C@H](NC(=O)[C@H]2CC[C@H](CN)CC2)C(=O)Nc2ccc(-c3nn[nH]n3)cc2)cc1 [Example 1, 4′-[(2S)-2-({[trans-4-(Aminomethyl)cyclohexyl]carbonyl}amino)-3-oxo-3-{[4-(2H-tetrazol-5-yl)phenyl]amino}propyl]-2-methyl-N-(piperidin-4-yl)biphenyl-4-carboxamide hydrochloride]",2
11,"Cc1cc(C(=O)N[C@H]2CC[C@H](O)CC2)ccc1-c1ccc(C[C@@H](NC(=O)[C@H]2CC[C@H](CN)CC2)C(=O)Nc2ccc(-c3nnc(C(F)(F)C(F)(F)C(=O)O)[nH]3)cc2)cc1 (single isomer, unassigned; enantiomer 2) [Example 105]",65
12,"COc1cc(C(=O)N[C@@H]2CCNC2)ccc1-c1ccc(C[C@H](NC(=O)[C@H]2CC[C@H](CN)CC2)C(=O)Nc2ccc(-c3nn[nH]n3)cc2)cc1 [Example 71, 4′-[(2S)-2-({[trans-4-(Aminomethyl)cyclohexyl]carbonyl}amino)-3-oxo-3-{[4-(2H-tetrazol-5-yl)phenyl]amino}propyl]-2-methoxy-N-[(3R)-pyrrolidin-3-yl]biphenyl-4-carboxamide hydrochloride]",7.4
13,"Cc1cc(C(=O)NC(CN(C)C)CN(C)C)ccc1-c1ccc(C[C@H](NC(=O)[C@H]2CC[C@H](CN)CC2)C(=O)Nc2ccc(-c3nn[nH]n3)cc2)cc1 [Example 66, 4′-[(2S)-2-({[trans-4-(Aminomethyl)cyclohexyl]carbonyl}amino)-3-oxo-3-{[4-(2H-tetrazol-5-yl)phenyl]amino}propyl]-N-[1,3-bis(dimethylamino)propan-2-yl]-2-methylbiphenyl-4-carboxamide hydrochloride]",29
14,"Cc1cc(C(=O)NC2CCNCC2)ccc1-c1ccc(C[C@H](NC(=O)[C@H]2CC[C@H](CN)CC2)C(=O)Nc2ccc(-c3nnc(CC(C)C)[nH]3)cc2)cc1 [Example 58, 4′-[(2S)-2-({[trans-4-(Aminomethyl)cyclohexyl]carbonyl}amino)-3-{[4-(3-isobutyl-4H-1,2,4-triazol-5-yl)phenyl]amino}-3-oxopropyl]-2-methyl-N-(piperidin-4-yl)biphenyl-4-carboxamide hydrochloride]",41
15,"Cc1cc(C(=O)NC2CCCNC2=O)ccc1-c1ccc(C[C@H](NC(=O)[C@H]2CC[C@H](CN)CC2)C(=O)Nc2ccc(-c3nc(C(F)F)n[nH]3)cc2)cc1 (stereo partly drawn) [Example 74, 4′-[(2S)-2-({[trans-4-(Aminomethyl)cyclohexyl]carbonyl}amino)-3-({4-[3-(difluoromethyl)-1H-1,2,4-triazol-5-yl]phenyl}amino)-3-oxopropyl]-2-methyl-N-(2-oxopiperidin-3-yl)biphenyl-4-carboxamide hydrochloride]",1.3
16,"Cc1cc(C(=O)NC2CCC(N(C)C)CC2)ccc1-c1ccc(C[C@H](NC(=O)[C@H]2CC[C@H](CN)CC2)C(=O)Nc2ccc3c(=O)[nH][nH]c3c2)cc1 (stereo partly drawn) [Example 68, 4′-{(2S)-2-({[trans-4-(Aminomethyl)cyclohexyl]carbonyl}amino)-3-oxo-3-[(3-oxo-2,3-dihydro-1H-indazol-6-yl)amino]propyl}-N-[4-(dimethylamino)cyclohexyl]-2-methylbiphenyl-4-carboxamide hydrochloride]",8.3

# Test system: human and animal plasma
# Test: Determination of anticoagulatory activity: activated partial thromboplastin time (aPTT) in plasma
# Conditions: concentration of test substance which brings about a 1.5-fold extension of the aPTT; plasma species not given
# Procedure: The anticoagulatory activity of the test substances is determined in vitro in human and animal plasma (for example mouse, rat, rabbit, pig and dog plasma). To this end, blood is drawn off in a mixing ratio of sodium citrate/blood of 1:9 using a 0.11 molar sodium citrate solution as receiver. Immediately after the blood has been drawn off, it is mixed thoroughly and centrifuged at about 4000 g for 15 minutes. The supernatant is pipetted off.
# The activated partial thromboolastin time (aPTT) is determined in the presence of varying concentrations of test substance or the corresponding solvent using a commercial test kit (C. K. Prest from Diagnostica Stago). The test compounds are incubated with the plasma and the PTT reagent (cephalin, kaolin) at 37° C. for 3 minutes. Coagulation is then started by addition of a 25 mM aqueous calcium chloride solution, and the time when coagulation occurs is determined. The concentration of test substance which brings about a 1.5-fold extension of the aPTT is determined.
row,SMILES,aPTT [µmol/L]
1,"Cc1cc(C(=O)N[C@H]2CC[C@H](O)CC2)ccc1-c1ccc(CC(NC(=O)[C@H]2CC[C@H](CN)CC2)C(=O)Nc2ccc(-c3nnc(C(F)(F)C(F)(F)C(=O)O)[nH]3)cc2)cc1 (mixture of isomers) [Example 131, 3-[5-(4-{[2-({[trans-4-(Aminomethyl)cyclohexyl]carbonyl}amino)-3-{4′-[(trans-4-hydroxycyclohexyl)carbamoyl]-2′-methylbiphenyl-4-yl}propanoyl]amino}phenyl)-4H-1,2,4-triazol-3-yl]-2,2,3,3-tetrafluoropropanoic acid (enantiomer mixture)]",0.2
